Experimental data published in ChEMBL document CHEMBL4507268 (2021).

How the values were obtained:
Conditions in all cases: Compound concentration 1000.0 nM
[1] = target: T1, NUAK family SNF1-like kinase 1 (Homo sapiens) (UniProt O60285)
T1 sequence (whole entry): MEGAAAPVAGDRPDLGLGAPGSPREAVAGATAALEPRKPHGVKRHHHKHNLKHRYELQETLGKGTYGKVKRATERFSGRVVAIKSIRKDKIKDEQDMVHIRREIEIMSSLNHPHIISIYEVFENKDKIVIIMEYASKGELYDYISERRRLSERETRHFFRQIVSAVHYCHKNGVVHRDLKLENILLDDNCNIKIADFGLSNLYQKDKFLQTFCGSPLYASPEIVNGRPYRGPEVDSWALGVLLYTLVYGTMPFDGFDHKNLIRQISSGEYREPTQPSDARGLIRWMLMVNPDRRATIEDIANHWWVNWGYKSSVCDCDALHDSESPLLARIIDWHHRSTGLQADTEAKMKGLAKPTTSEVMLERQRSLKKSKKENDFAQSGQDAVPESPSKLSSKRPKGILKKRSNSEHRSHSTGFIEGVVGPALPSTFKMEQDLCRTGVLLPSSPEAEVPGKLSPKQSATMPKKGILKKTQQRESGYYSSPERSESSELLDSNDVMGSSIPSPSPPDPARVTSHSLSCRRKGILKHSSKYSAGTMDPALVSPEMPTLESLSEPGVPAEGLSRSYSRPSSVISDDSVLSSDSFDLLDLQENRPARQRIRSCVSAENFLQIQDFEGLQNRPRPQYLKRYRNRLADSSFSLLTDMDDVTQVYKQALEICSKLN

[2] = target: Phosphatidylinositol 4,5-bisphosphate 3-kinase catalytic subunit gamma isoform (Homo sapiens) (UniProt P48736)
[3] = test system: Tyrosine-protein kinase ABL1 (Homo sapiens), P00519 [H396P]
[4] = target: Cyclin-dependent kinase 11B (Homo sapiens) (UniProt P21127)
[5] = target: Homeodomain-interacting protein kinase 1 (Homo sapiens) (UniProt Q86Z02)
[6] = target: T2, Serine/threonine-protein kinase DCLK2 (Homo sapiens) (UniProt Q8N568)
T2 sequence (whole entry): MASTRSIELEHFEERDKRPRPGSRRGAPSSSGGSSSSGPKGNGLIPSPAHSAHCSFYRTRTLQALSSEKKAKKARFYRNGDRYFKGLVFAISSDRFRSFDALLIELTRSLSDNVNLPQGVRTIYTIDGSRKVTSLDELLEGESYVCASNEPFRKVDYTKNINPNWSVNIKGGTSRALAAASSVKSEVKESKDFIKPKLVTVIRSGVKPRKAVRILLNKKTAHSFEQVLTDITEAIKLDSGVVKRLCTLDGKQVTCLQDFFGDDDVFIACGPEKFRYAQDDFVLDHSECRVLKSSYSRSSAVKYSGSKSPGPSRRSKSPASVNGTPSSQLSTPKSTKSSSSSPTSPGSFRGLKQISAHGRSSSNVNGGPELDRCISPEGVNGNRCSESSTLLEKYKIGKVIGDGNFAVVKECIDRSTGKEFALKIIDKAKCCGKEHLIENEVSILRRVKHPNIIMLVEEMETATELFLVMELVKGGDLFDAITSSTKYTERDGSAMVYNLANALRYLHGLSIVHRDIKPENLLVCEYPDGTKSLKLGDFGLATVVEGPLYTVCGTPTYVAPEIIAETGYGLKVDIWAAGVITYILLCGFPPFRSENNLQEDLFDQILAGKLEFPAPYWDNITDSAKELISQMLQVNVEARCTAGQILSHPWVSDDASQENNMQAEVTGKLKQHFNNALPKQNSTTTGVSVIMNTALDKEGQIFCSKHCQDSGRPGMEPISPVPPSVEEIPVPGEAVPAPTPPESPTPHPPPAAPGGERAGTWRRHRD

[7] = target: Receptor-type tyrosine-protein kinase FLT3 (Homo sapiens) (UniProt P36888)
[8] = target: T3, Serine/threonine-protein kinase 17B (Homo sapiens) (UniProt O94768)
T3 sequence (whole entry): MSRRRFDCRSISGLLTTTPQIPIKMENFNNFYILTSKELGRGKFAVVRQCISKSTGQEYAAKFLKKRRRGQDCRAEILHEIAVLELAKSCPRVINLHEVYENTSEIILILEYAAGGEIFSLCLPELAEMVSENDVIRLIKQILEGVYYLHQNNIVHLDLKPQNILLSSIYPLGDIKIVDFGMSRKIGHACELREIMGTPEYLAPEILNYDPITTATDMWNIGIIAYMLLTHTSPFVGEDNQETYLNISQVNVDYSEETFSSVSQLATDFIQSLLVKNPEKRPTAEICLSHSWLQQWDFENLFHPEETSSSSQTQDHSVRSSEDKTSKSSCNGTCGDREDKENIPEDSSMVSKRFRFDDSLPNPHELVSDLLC

[9] = target: T4, Dual specificity tyrosine-phosphorylation-regulated kinase 2 (Homo sapiens) (UniProt Q92630)
T4 sequence (whole entry): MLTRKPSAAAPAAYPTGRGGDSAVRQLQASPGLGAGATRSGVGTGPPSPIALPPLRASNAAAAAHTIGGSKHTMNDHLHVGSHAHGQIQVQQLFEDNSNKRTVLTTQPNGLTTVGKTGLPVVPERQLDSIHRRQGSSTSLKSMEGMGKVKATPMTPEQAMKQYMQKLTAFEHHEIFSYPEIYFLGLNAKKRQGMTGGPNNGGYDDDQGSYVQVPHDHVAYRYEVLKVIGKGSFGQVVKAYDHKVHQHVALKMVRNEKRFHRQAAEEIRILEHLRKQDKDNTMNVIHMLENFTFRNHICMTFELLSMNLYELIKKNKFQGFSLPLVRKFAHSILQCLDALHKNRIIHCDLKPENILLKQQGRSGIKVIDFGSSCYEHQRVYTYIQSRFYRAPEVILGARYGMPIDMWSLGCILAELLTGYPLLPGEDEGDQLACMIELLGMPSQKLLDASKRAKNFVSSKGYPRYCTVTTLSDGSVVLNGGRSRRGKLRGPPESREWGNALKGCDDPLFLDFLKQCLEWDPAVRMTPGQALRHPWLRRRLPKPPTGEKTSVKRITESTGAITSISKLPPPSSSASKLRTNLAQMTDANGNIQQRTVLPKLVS

[10] = target: Serine/threonine-protein kinase/endoribonuclease IRE1 (Homo sapiens) (UniProt O75460)
[11] = target: LIM domain kinase 1 (Homo sapiens) (UniProt P53667)
[12] = target: Mitogen-activated protein kinase 9 (Homo sapiens) (UniProt P45984)

Measured: residual activity

Sequence of Homeodomain-interacting protein kinase 1 (Homo sapiens) (Q86Z02 whole entry, looked up): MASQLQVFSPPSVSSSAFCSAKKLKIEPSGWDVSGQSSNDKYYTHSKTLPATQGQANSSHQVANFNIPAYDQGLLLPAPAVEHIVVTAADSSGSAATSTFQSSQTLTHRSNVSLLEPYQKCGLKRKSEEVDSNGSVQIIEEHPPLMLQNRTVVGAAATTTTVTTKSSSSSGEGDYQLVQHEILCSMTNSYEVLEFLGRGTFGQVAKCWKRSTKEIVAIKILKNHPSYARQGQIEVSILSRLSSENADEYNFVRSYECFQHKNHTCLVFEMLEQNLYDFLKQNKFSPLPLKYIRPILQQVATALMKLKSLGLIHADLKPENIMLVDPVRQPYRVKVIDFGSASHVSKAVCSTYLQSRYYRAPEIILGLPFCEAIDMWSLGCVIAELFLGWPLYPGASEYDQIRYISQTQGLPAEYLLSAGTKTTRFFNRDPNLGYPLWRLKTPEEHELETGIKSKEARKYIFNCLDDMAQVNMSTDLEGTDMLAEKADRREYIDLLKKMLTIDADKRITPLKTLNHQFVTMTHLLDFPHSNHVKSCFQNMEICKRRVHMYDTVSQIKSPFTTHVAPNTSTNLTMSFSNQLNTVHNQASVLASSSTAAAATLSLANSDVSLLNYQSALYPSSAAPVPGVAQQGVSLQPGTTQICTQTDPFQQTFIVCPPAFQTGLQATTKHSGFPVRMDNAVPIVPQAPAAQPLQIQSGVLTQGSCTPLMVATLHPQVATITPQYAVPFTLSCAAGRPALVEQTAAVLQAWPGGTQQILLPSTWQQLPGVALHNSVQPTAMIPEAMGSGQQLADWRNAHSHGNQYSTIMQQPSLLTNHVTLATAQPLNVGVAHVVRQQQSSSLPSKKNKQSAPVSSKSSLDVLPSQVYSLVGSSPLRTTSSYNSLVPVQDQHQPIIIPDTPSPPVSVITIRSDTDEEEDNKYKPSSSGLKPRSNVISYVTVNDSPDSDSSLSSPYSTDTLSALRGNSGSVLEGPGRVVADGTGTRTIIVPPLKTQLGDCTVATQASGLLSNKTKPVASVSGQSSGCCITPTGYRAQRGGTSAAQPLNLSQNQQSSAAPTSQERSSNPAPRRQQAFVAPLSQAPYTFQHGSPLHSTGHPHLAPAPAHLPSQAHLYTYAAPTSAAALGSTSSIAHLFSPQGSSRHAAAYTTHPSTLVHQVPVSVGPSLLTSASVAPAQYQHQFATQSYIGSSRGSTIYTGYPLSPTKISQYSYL
Sequence of Serine/threonine-protein kinase/endoribonuclease IRE1 (Homo sapiens) (O75460 19-977 limits assumed): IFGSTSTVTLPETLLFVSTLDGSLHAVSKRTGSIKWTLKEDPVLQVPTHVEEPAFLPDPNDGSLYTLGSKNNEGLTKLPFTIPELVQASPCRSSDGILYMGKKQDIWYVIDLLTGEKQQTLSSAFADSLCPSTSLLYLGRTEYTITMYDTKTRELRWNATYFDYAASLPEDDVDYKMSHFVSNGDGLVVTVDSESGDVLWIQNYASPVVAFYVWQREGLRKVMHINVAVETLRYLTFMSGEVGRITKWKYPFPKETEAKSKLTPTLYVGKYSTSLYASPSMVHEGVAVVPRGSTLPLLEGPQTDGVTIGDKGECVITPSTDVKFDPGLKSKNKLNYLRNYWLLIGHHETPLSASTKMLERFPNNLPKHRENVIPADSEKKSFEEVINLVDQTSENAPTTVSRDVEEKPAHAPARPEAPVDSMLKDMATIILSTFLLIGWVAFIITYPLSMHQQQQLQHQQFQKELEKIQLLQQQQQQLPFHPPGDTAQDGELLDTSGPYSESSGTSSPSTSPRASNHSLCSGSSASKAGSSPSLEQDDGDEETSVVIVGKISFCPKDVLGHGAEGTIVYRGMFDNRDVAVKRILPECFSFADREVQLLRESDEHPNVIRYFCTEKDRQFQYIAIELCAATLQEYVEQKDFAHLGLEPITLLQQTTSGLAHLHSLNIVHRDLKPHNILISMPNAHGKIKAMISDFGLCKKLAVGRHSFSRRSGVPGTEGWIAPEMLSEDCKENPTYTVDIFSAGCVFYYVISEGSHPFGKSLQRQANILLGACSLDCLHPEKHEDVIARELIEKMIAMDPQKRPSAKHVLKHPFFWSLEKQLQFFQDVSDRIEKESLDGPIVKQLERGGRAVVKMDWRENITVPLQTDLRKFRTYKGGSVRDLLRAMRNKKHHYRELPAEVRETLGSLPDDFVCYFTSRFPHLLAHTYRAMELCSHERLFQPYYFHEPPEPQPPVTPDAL
Sequence of Cyclin-dependent kinase 11B (Homo sapiens) (P21127 whole entry): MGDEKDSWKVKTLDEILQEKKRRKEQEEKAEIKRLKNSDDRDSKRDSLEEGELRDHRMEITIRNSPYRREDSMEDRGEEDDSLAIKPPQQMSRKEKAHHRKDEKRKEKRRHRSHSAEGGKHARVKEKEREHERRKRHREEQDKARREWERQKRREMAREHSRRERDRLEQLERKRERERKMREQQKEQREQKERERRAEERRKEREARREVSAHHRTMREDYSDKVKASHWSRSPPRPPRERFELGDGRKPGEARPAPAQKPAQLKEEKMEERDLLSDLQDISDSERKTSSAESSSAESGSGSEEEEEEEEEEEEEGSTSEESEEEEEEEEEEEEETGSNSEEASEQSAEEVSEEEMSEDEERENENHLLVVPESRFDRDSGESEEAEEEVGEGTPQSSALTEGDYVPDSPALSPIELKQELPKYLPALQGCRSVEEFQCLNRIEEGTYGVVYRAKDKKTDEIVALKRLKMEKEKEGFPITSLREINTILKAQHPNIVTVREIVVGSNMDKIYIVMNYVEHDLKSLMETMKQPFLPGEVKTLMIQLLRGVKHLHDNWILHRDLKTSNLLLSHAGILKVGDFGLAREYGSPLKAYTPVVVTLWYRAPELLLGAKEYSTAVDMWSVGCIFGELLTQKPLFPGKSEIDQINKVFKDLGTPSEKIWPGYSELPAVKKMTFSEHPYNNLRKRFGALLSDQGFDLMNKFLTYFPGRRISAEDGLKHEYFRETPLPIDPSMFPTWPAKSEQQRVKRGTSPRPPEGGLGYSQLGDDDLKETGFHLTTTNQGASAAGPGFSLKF
Sequence of Phosphatidylinositol 4,5-bisphosphate 3-kinase catalytic subunit gamma isoform (Homo sapiens) (P48736 whole entry, looked up, canonical isoform): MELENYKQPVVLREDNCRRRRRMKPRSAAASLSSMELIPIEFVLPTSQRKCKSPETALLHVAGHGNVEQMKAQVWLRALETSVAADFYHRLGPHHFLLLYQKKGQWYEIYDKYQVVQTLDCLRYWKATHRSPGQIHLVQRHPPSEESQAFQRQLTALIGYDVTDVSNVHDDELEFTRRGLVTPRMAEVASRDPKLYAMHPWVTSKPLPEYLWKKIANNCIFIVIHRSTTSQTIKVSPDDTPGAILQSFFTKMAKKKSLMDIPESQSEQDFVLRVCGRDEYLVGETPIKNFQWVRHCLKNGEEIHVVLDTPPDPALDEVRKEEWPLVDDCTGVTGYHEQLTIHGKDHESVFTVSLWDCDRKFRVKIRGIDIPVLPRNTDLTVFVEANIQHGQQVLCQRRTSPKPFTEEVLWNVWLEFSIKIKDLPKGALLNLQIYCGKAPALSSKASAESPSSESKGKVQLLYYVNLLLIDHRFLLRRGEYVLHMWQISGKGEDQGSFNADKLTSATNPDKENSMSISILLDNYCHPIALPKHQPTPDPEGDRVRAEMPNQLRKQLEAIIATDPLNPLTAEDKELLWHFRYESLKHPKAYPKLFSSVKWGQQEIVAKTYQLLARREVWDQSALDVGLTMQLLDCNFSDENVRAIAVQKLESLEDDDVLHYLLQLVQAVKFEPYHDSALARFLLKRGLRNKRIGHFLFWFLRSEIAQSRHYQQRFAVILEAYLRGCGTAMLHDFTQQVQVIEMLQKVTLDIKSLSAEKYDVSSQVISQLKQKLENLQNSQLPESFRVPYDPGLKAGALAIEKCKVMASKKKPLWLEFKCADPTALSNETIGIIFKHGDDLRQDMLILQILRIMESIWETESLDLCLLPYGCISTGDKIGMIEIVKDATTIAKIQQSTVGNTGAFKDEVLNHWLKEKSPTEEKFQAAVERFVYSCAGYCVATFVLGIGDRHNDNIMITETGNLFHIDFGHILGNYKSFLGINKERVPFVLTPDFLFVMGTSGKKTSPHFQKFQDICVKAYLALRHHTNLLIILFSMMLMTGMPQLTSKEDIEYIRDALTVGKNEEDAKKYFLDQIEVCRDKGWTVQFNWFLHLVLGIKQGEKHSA
Sequence of LIM domain kinase 1 (Homo sapiens) (P53667 whole entry, looked up, the tested form may be a part): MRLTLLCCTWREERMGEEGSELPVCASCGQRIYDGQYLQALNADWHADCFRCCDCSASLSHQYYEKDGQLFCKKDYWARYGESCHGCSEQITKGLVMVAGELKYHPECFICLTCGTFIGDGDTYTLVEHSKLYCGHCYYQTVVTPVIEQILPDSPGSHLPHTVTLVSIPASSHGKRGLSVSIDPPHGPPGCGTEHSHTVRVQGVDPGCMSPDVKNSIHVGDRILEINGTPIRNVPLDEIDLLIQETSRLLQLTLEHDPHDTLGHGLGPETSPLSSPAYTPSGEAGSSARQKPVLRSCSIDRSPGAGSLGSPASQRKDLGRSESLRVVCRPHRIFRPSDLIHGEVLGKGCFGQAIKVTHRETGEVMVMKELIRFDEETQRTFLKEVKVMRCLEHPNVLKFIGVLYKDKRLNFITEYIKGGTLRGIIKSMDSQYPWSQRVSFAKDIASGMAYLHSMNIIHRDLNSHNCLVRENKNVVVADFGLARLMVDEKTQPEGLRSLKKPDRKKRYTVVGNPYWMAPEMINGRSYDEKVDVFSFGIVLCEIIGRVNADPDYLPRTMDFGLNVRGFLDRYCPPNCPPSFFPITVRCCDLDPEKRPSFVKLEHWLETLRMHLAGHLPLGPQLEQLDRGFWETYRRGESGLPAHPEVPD

Cc1nc(C2CCN(C(=O)c3ccc(OC(F)(F)F)cc3N)CC2)c2ncc(N3CCN(C)CC3)cc2n1 [BAY-693]
inactive: [1] 95% | [2] 79% | [3] 78% | [4] 87% | [5] 100% | [6] 100% | [7] 83% | [8] 99% | [9] 100% | [10] 100% | [11] 93% | [12] 100%

CN1CCN(c2cnc3c(C4CCN(C(=O)c5ccc(OC(F)(F)F)cc5N)CC4)ncnc3c2)CC1 [BAY-885]
inactive: [1] 100% | [2] 95% | [3] 76% | [4] 82% | [5] 99% | [6] 100% | [7] 100% | [8] 86% | [9] 100% | [10] 99% | [11] 100% | [12] 100%
